{"source": "patent US7655237B2", "about": "“Use of soluble CD14 for treatment of type 2 diabetes mellitus” (Bridge Bioresearch Limited, priority 2003, dated 2010)", "key": {"[1]": {"test_system": "LPS", "conditions": "biotinylated LPS binding to sCD14-coated wells, cited from earlier work"}, "[2]": {"test_system": "C57BL/6J ob/ob mice", "test": "treatment of insulin-resistant diabetic C57BL/6J ob/ob mice, intraperitoneal glucose tolerance test", "format": "in vivo", "from_the_text": "The objective of this experiment was to study the effect of systemic administration of human recombinant sCD14 (rhCD14) with respect to relevant insulin resistance parameters in experimental mice (mice C57BL/6J ob/ob).\nExperimental animals: Mice strains C57BL/6J ob/ob (The Jackson lab.). Males of 10 weeks old. These animals had obesity with hyperphagia, hyperinsulinemia (the presence of excess insulin in the blood), insulin resistance and moderate hyperglycemia (an excess of sugar in the blood).\nTreatment of the mice with rhCD14: rhCD14 was continuously infused for 12 days by use of Alzet® pumps (pump 1002, 100 μl) implanted subcutaneously on the back of the animals. 20 mice were used. 10 with rhCD14 and 10 with saline serum (control). The dose was 1 μg/g weight of mice/day and it was administrated subcutaneously for 12 days.\nAssay for glucose tolerance: Finalized the 12 days and after 16 hours of fasting, an intraperitoneal glucose tolerance test (GTT) was made. 2 g/kg of glucose (Glucosmon, 50%) were injected intraperitoneally. Blood samples were taken from the tail of the mice (20 μl) at 0, 15, 30, 60, 120 and 180 minutes after the glucose administration. The blood glucose levels were measured using a conventional glucometer (Menarini) and the insulin levels were meed by ELISA (Mercodia Ultrasensitive Mouse Insulin ELISA)."}, "[3]": {"test_system": "C57BL/6J mice (HF mice)", "test": "treatment of insulin-resistant obese C57BL/6J mice (HF mice), glucose tolerance test", "format": "in vivo", "conditions": "HF diet obese mice", "from_the_text": "The objective of this experiment was to study the effect of systemic administration of human recombinant sCD14 (rhCD14) with respect to relevant insulin resistance parameters in experimental mice (C57BL/6J mice (HF mice).\nExperiential animals: Male mice strains C57BL/6J (HF mice) C(he Jackson lab.). These animals had obesity.\nTreatment of the mice with rhCD14: Male C57BL/6J mice were fed a HF diet (Harlan Teklad No. 88137: 21% by wt and 42% kcal from fat) for 26-28 weeks. The last 12 days, mice received a dose of 1 μg/g bw per day of hCD14 in two injections (0.5 μg/g each one) every 12 hours. The control group was treated with vehicle (saline serum) alone. Each group contained 9 mice.\nAssay for Glucose Tolerance: As in Example 1."}}, "note": "Read-outs that look alike come from different tables or passages of the source."}
{"substance": "AELQQWLKPGLKVLSIAQAHSLNFSC (mammalian) [peptide]", "values": [{"measurement": "inhibition of LPS binding", "setting": "[1]; concentration 1.7 μM", "result": 72, "unit": "%"}, {"measurement": "inhibition of LPS binding", "setting": "[1]; concentration 7 μM", "result": 84, "unit": "%"}]}
{"substance": "rhCD14: human recombinant soluble CD14 glycoprotein, binds bacterial lipopolysaccharide (LPS)", "values": [{"measurement": "basal levels of serum glucose compared to the control group", "setting": "[2]; 1 μg/g/day s.c. for 12 days", "result": "decreased"}, {"measurement": "concentrations of serum insulin", "setting": "[2]; 1 μg/g/day s.c. for 12 days", "result": "also decreased"}, {"measurement": "fasting blood glucose", "setting": "[2]; 1 μg/g/day s.c. infusion for 12 days, 16 hours fasting, mean±SEM, control 242±30, P=0.02", "result": "153 ± 14", "unit": "mg/dL"}, {"measurement": "body weight, treated vs controls", "setting": "[2]; 12 days treatment", "result": "did not produce significant changes"}, {"measurement": "glucose curves in GTT, treated vs control (two-way ANOVA)", "setting": "[2]; i.p. GTT 2 g/kg glucose, 0-180 min, P<0.02", "result": "significant difference"}, {"measurement": "insulin curves in GTT, treated vs control (two-way ANOVA)", "setting": "[2]; i.p. GTT, P<0.0001", "result": "significant difference"}, {"measurement": "inhibition of LPS binding", "setting": "[1]; concentration 1.7 μM", "result": 84, "unit": "%"}, {"measurement": "concentrations of serum insulin", "setting": "[3]; 1 μg/g bw per day for 12 days", "result": "increased"}, {"measurement": "basal levels of serum glucose compared to the control group", "setting": "[3]; 1 μg/g bw per day in two injections for 12 days", "result": "decreased"}, {"measurement": "body weight, treated vs controls", "setting": "[3]; 12 days treatment", "result": "did not produce significant changes"}, {"measurement": "insulin curves in GTT, treated vs control (two-way ANOVA)", "setting": "[3]; P<0.0001", "result": "significant difference"}, {"measurement": "glucose curves in GTT, treated vs control (two-way ANOVA)", "setting": "[3]; P<0.002", "result": "significant difference"}]}
